Our source for the MIC values is patent US5843889A, “Glycopeptide antibiotic derivatives” (Eli Lilly and Company, priority 1997, dated 1998).

Holding throughout (test): MIC, standard broth micro-dilution assay
What all share (format): cell-based
In general terms: In broth dilution the organism is exposed to a series of concentrations in liquid medium.

Test [1] has as its system Entercoccus faecalis 2041. The procedure: (§1) The formula I compounds have in vitro and in vivo activity against Gram-positive pathogenic bacteria. The MIC's were determined using a standard broth micro-dilution assay.
The next test relates to Entercoccus faecalis 276. The procedure:
as §1

Test [2] concerns Entercoccus gallinarum 245. The protocol:
as §1

Usually MIC stands for the least concentration at which growth counts as inhibited. A high value points to weaker potency.

Values after ≈ are worked out from the molar mass of the structure shown.

For the compound `CNC(CC(C)C)C(=O)NC1C(=O)NC(CC(N)=O)C(=O)NC2C(=O)NC3C(=O)NC(C(=O)NC(C(=O)O)c4cc(O)cc(O)c4-c4cc3ccc4O)C(OC3CC(C)(N)C(O)C(C)O3)c3ccc(c(Cl)c3)Oc3cc2cc(c3OC2OC(CO)C(O)C(O)C2OC2CC(C)(NCCc3ccc4ccccc4c3)C(O)C(C)O2)Oc2ccc(cc2Cl)C1O` (stereo not drawn) [Compound 179, 2-[2-napthyl]ethyl], the MIC is at most 0.06 µg/mL in test [1], at most 0.06 µg/mL in the test on Entercoccus faecalis 276 and 1 µg/mL (≈ 0.573 µM) in test [2].

In the case of `CNC(CC(C)C)C(=O)NC1C(=O)NC(CC(N)=O)C(=O)NC2C(=O)NC3C(=O)NC(C(=O)NC(C(=O)O)c4cc(O)cc(O)c4-c4cc3ccc4O)C(OC3CC(C)(N)C(O)C(C)O3)c3ccc(c(Cl)c3)Oc3cc2cc(c3OC2OC(CO)C(O)C(O)C2OC2CC(C)(NCc3cccc(Sc4ccc(C(C)(C)C)cc4)c3)C(O)C(C)O2)Oc2ccc(cc2Cl)C1O` (stereo not drawn) [Compound 228, 3-[4-t-butyl-phenylthio]benzyl], the MIC turned out to be 0.25 µg/mL (≈ 0.135 µM) in test [1], 1 µg/mL (≈ 0.541 µM) against Entercoccus faecalis 276 and 4 µg/mL (≈ 2.17 µM) in test [2].

For `CNC(CC(C)C)C(=O)NC1C(=O)NC(CC(N)=O)C(=O)NC2C(=O)NC3C(=O)NC(C(=O)NC(C(=O)O)c4cc(O)cc(O)c4-c4cc3ccc4O)C(OC3CC(C)(N)C(O)C(C)O3)c3ccc(c(Cl)c3)Oc3cc2cc(c3OC2OC(CO)C(O)C(O)C2OC2CC(C)(NCc3cnc4ccccc4c3)C(O)C(C)O2)Oc2ccc(cc2Cl)C1O` (stereo not drawn) [Compound 28, 3-quinolylmethyl], the results for the MIC (in test [1]; against Entercoccus faecalis 276; in test [2]) were 0.25 µg/mL (≈ 0.144 µM), at most 0.06 µg/mL and 0.25 µg/mL (≈ 0.144 µM), respectively.

As to `CNC(CC(C)C)C(=O)NC1C(=O)NC(CC(N)=O)C(=O)NC2C(=O)NC3C(=O)NC(C(=O)NC(C(=O)O)c4cc(O)cc(O)c4-c4cc3ccc4O)C(OC3CC(C)(N)C(O)C(C)O3)c3ccc(c(Cl)c3)Oc3cc2cc(c3OC2OC(CO)C(O)C(O)C2OC2CC(C)(NCc3ccc(-c4ccc(OC)cc4)cc3)C(O)C(C)O2)Oc2ccc(cc2Cl)C1O` (stereo not drawn) [Compound 54, 4-[4-methoxyphenyl]benzyl], the MIC in test [1] was at most 0.06 µg/mL; against Entercoccus faecalis 276, 1 µg/mL (≈ 0.559 µM); in test [2] it was 0.5 µg/mL (≈ 0.28 µM).

For `CN[C@H](CC(C)C)C(=O)N[C@H]1C(=O)N[C@@H](CC(N)=O)C(=O)N[C@H]2C(=O)N[C@H]3C(=O)N[C@H](C(=O)N[C@H](C(=O)O)c4cc(O)cc(O)c4-c4cc3ccc4O)[C@H](O[C@H]3C[C@](C)(N)[C@@H](O)[C@H](C)O3)c3ccc(c(Cl)c3)Oc3cc2cc(c3O[C@@H]2O[C@H](CO)[C@@H](O)[C@H](O)[C@H]2O[C@H]2C[C@](C)(NCc3ccc(-c4ccc(C)cc4)cc3)[C@@H](O)[C@H](C)O2)Oc2ccc(cc2Cl)[C@H]1O` [Compound 97, 4-[4-methylphenyl]benzyl], the results for the MIC (in test [1]; against Entercoccus faecalis 276; in test [2]) were at most 0.06 µg/mL, at most 0.06 µg/mL and 2 µg/mL (≈ 1.13 µM), respectively.

Regarding `CNC(CC(C)C)C(=O)NC1C(=O)NC(CC(N)=O)C(=O)NC2C(=O)NC3C(=O)NC(C(=O)NC(C(=O)O)c4cc(O)cc(O)c4-c4cc3ccc4O)C(OC3CC(C)(N)C(O)C(C)O3)c3ccc(c(Cl)c3)Oc3cc2cc(c3OC2OC(CO)C(O)C(O)C2OC2CC(C)(NCc3ccc(C#Cc4ccccc4)cc3)C(O)C(C)O2)Oc2ccc(cc2Cl)C1O` (stereo not drawn) [Compound 79, 4-phenylethynylbenzyl], the MIC (in test [1]; with Entercoccus faecalis 276; in test [2]) was at most 0.06 µg/mL throughout.

In the case of `CNC(CC(C)C)C(=O)NC1C(=O)NC(CC(N)=O)C(=O)NC2C(=O)NC3C(=O)NC(C(=O)NC(C(=O)O)c4cc(O)cc(O)c4-c4cc3ccc4O)C(OC3CC(C)(N)C(O)C(C)O3)c3ccc(c(Cl)c3)Oc3cc2cc(c3OC2OC(CO)C(O)C(O)C2OC2CC(C)(NCc3ccc(Oc4ccccc4[N+](=O)[O-])cc3)C(O)C(C)O2)Oc2ccc(cc2Cl)C1O` (stereo not drawn) [Compound 70, 4-[2-nitrophenoxy]benzyl], the MIC in test [1] was at most 0.06 µg/mL; against Entercoccus faecalis 276 it was at most 0.06 µg/mL; in test [2] it was 2 µg/mL (≈ 1.1 µM).

On to `CNC(CC(C)C)C(=O)NC1C(=O)NC(CC(N)=O)C(=O)NC2C(=O)NC3C(=O)NC(C(=O)NC(C(=O)O)c4cc(O)cc(O)c4-c4cc3ccc4O)C(OC3CC(C)(N)C(O)C(C)O3)c3ccc(c(Cl)c3)Oc3cc2cc(c3OC2OC(CO)C(O)C(O)C2OC2CC(C)(NCc3ccc(Oc4cccc(Cl)c4)c([N+](=O)[O-])c3)C(O)C(C)O2)Oc2ccc(cc2Cl)C1O` (stereo not drawn) [Compound 87, 4-[3-chlorophenoxy]-3-nitrobenzyl], for which the minimum inhibitory concentration (MIC) in test [1] was at most 0.06 µg/mL; against Entercoccus faecalis 276, at most 0.06 µg/mL; in test [2] it was 2 µg/mL (≈ 1.08 µM).

For the compound `CNC(CC(C)C)C(=O)NC1C(=O)NC(CC(N)=O)C(=O)NC2C(=O)NC3C(=O)NC(C(=O)NC(C(=O)O)c4cc(O)cc(O)c4-c4cc3ccc4O)C(OC3CC(C)(N)C(O)C(C)O3)c3ccc(c(Cl)c3)Oc3cc2cc(c3OC2OC(CO)C(O)C(O)C2OC2CC(C)(NCc3ccc(-c4ccc(C#N)cc4)cc3)C(O)C(C)O2)Oc2ccc(cc2Cl)C1O` (stereo not drawn) [Compound 231, 4-[4-cyanophenyl]benzyl], the results for the MIC (in test [1]; in the test with Entercoccus faecalis 276; in test [2]) were at most 0.06 µg/mL, at most 0.06 µg/mL and 0.5 µg/mL (≈ 0.28 µM), respectively.

Regarding `CNC(CC(C)C)C(=O)NC1C(=O)NC(CC(N)=O)C(=O)NC2C(=O)NC3C(=O)NC(C(=O)NC(C(=O)O)c4cc(O)cc(O)c4-c4cc3ccc4O)C(OC3CC(C)(N)C(O)C(C)O3)c3ccc(c(Cl)c3)Oc3cc2cc(c3OC2OC(CO)C(O)C(O)C2OC2CC(C)(NCc3cc4ccccc4s3)C(O)C(C)O2)Oc2ccc(cc2Cl)C1O` (stereo not drawn) [Compound 19, 2-benzthienylmethyl], the MIC (in test [1]; in the test on Entercoccus faecalis 276; in test [2]) was at most 0.06 µg/mL in each case.

For `CCCOC(c1ccccc1)c1ccc(CNC2(C)CC(OC3C(Oc4c5cc6cc4Oc4ccc(cc4Cl)C(OC4CC(C)(N)C(O)C(C)O4)C4NC(=O)C(NC(=O)C6NC(=O)C(CC(N)=O)NC(=O)C(NC(=O)C(CC(C)C)NC)C(O)c6ccc(c(Cl)c6)O5)c5ccc(O)c(c5)-c5c(O)cc(O)cc5C(C(=O)O)NC4=O)OC(CO)C(O)C3O)OC(C)C2O)cc1` (stereo not drawn) [Compound 128, 4-[alpha-propoxybenzyl]benzyl], the figures for the MIC (in test [1]; with Entercoccus faecalis 276; in test [2]) were 0.5 µg/mL (≈ 0.273 µM), 1 µg/mL (≈ 0.546 µM) and 2 µg/mL (≈ 1.09 µM), respectively.

In the case of `CN[C@@H](CC(C)C)C(=O)N[C@H]1C(=O)N[C@H](CC(N)=O)C(=O)N[C@H]2C(=O)N[C@H]3C(=O)N[C@@H](C(=O)NC(C(=O)O)c4cc(O)cc(O)c4-c4cc3ccc4O)[C@@H](O[C@H]3C[C@](C)(N)[C@H](O)[C@@H](C)O3)c3ccc(cc3)Oc3cc2cc(c3O[C@H]2O[C@@H](CO)[C@@H](O)[C@H](O)[C@@H]2O[C@H]2C[C@](C)(N)[C@H](O)[C@@H](C)O2)Oc2ccc(cc2)[C@@H]1O` (stereo partly drawn) [Compound A82846C, A82846C, reference compound], the MIC (in test [1]; in the test with Entercoccus faecalis 276; in test [2]) was 0.5 µg/mL (≈ 0.328 µM) each time.

Consider `C=CCCCCNC1(C)CC(OC2C(Oc3c4cc5cc3Oc3ccc(cc3Cl)C(OC3CC(C)(N)C(O)C(C)O3)C3NC(=O)C(NC(=O)C5NC(=O)C(CC(N)=O)NC(=O)C(NC(=O)C(CC(C)C)NC)C(O)c5ccc(c(Cl)c5)O4)c4ccc(O)c(c4)-c4c(O)cc(O)cc4C(C(=O)O)NC3=O)OC(CO)C(O)C2O)OC(C)C1O` (stereo not drawn) [Compound 217, 5-hexenyl], for which the MIC is at most 0.06 µg/mL in test [1], at most 0.06 µg/mL with Entercoccus faecalis 276 and 8 µg/mL (≈ 4.78 µM) in test [2].
